# Test results: patent publication US20250186437A1, “CARBOLINE COMPOUNDS AND USE THEREOF” (PTC Therapeutics, Inc., priority 2021, published 2025)
# pIC50: −log10 of the molar value.
# Test system: MOLM-13 cells
# Experiment: MOLM-13 Cell Proliferation Assay (indicator of DHODH inhibition)
# Format: cell-based
# Details: Homo sapiens, 72 Hours of culture, CellTiter-Glo, no uridine
# Procedure, shortened: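 Low-passage MOLM-13 cells (10^4/well) in RPMI 1640 + 10% FBS exposed to compound (0.5% DMSO final) for 72 h at 37 °C, 5% CO2. Viability read by CellTiter-Glo luminescence; growth reflects de novo pyrimidine synthesis dependent on DHODH.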
row,pIC50,SMILES
1,8.92,"COCCOc1ncc(C2c3[nH]c4ccc(Cl)cc4c3CCN2c2nc(C(F)(F)F)nc(C(F)(F)F)n2)cn1 (stereo not shown) [Compound 536, 2-[4,6-bis(trifluoromethyl)-1,3,5-triazin-2-yl]-6-chloro-1-[2-(2-methoxyethoxy)pyrimidin-5-yl]-2,3,4,9-tetrahydro-1H-pyrido[3,4-b]indole]"
2,8.24,"CN1CCN(c2ncc([C@H]3c4[nH]c5ccc(-n6nccn6)cc5c4CCN3c3ncnc(C(F)(F)F)n3)cn2)CC1 [Compound 506, (1S)-1-[2-(4-methylpiperazin-1-yl)pyrimidin-5-yl]-6-(2H-1,2,3-triazol-2-yl)-2-[4-(trifluoromethyl)-1,3,5-triazin-2-yl]-2,3,4,9-tetrahydro-1H-pyrido[3,4-b]indole]"
3,8.42,"Cc1nc(N2CCc3c([nH]c4cc(F)c(Cl)cc34)C2c2cccc(F)c2F)nc(C)c1F (stereo not shown) [Compound 112, 6-chloro-1-(2,3-difluorophenyl)-7-fluoro-2-(5-fluoro-4,6-dimethylpyrimidin-2-yl)-2,3,4,9-tetrahydro-1H-pyrido[3,4-b]indole]"
4,8.62,"Cc1cnc(N2CCc3c([nH]c4ccc(Cl)c(F)c34)C2c2ccc(C)c(F)c2F)nc1 (stereo not shown) [Compound 137, 6-chloro-1-(2,3-difluoro-4-methylphenyl)-5-fluoro-2-(5-methylpyrimidin-2-yl)-2,3,4,9-tetrahydro-1H-pyrido[3,4-b]indole]"
5,7.58,"Cc1nc(C)nc(N2CCc3c([nH]c4ccc(Cl)cc34)C2c2cnc(N3CCN(C)CC3)nc2)n1 (stereo not shown) [Compound 380, 6-chloro-2-(4,6-dimethyl-1,3,5-triazin-2-yl)-1-[2-(4-methylpiperazin-1-yl)pyrimidin-5-yl]-2,3,4,9-tetrahydro-1H-pyrido[3,4-b]indole]"
6,7.35,"CS(=O)(=O)c1ccc(C2c3[nH]c4cc(F)c(Cl)cc4c3CCN2c2ncc(F)cn2)cc1 (stereo not shown) [Compound 107, 6-chloro-7-fluoro-2-(5-fluoropyrimidin-2-yl)-1-[4-(methanesulfonyl)phenyl]-2,3,4,9-tetrahydro-1H-pyrido[3,4-b]indole]"
7,9.22,"Cc1ccc(C2c3[nH]c4ccc(Cl)cc4c3CCN2c2nc(Cl)cc(Cl)n2)cc1 (stereo not shown) [Compound 7, 6-chloro-2-(4,6-dichloropyrimidin-2-yl)-1-(4-methylphenyl)-2,3,4,9-tetrahydro-1H-pyrido[3,4-b]indole]"
8,7.54,"Cc1ccnc(N2CCc3c([nH]c4ccc(Cl)c(F)c34)C2c2ccc(F)cc2)n1 (stereo not shown) [Compound 90, 6-chloro-5-fluoro-1-(4-fluorophenyl)-2-(4-methylpyrimidin-2-yl)-2,3,4,9-tetrahydro-1H-pyrido[3,4-b]indole]"
9,7.71,"Cc1nc(N(C)C)nc(N2CCc3c([nH]c4ccc(Cl)cc34)C2c2cnc(N3CCOCC3)nc2)n1 (stereo not shown) [Compound 290, 4-{6-chloro-1-[2-(morpholin-4-yl)pyrimidin-5-yl]-1,3,4,9-tetrahydro-2H-pyrido[3,4-b]indol-2-yl}-N,N,6-trimethyl-1,3,5-triazin-2-amine]"
10,8.74,"N#Cc1ccnc(N2CCc3c([nH]c4ccc(Cl)c(F)c34)C2c2ccc(/C=C/CCO)cc2)n1 (stereo not shown) [Compound 236, 2-(6-chloro-5-fluoro-1-{4-[(1E)-4-hydroxybut-1-en-1-yl]phenyl}-1,3,4,9-tetrahydro-2H-pyrido[3,4-b]indol-2-yl)pyrimidine-4-carbonitrile]"
11,8.68,"Fc1c(Cl)ccc2[nH]c3c(c12)CCN(c1nccc(C(F)(F)F)n1)C3c1cnc(N2CCOCC2)nc1 (stereo not shown) [Compound 200, 6-chloro-5-fluoro-1-[2-(morpholin-4-yl)pyrimidin-5-yl]-2-[4-(trifluoromethyl)pyrimidin-2-yl]-2,3,4,9-tetrahydro-1H-pyrido[3,4-b]indole]"
12,9.15,"FC(F)(F)c1cc(C(F)(F)F)nc(N2CCc3c([nH]c4ccc(-n5nccn5)cc34)C2c2ccc(N3CCOCC3)nc2)n1 (stereo not shown) [Compound 454, 2-[4,6-bis(trifluoromethyl)pyrimidin-2-yl]-1-[6-(morpholin-4-yl)pyridin-3-yl]-6-(2H-1,2,3-triazol-2-yl)-2,3,4,9-tetrahydro-1H-pyrido[3,4-b]indole]"
13,8.06,"Cc1ccc(C2c3[nH]c4cc(F)c(Cl)cc4c3CCN2c2nccc(C#N)n2)c(F)c1F (stereo not shown) [Compound 141, 2-[6-chloro-1-(2,3-difluoro-4-methylphenyl)-7-fluoro-1,3,4,9-tetrahydro-2H-pyrido[3,4-b]indol-2-yl]pyrimidine-4-carbonitrile]"
14,8.15,"Cc1ccc(C2c3[nH]c4ccc(Cl)cc4c3CCN2c2nccc(C#N)n2)cc1 (stereo not shown) [Compound 378, 2-[6-chloro-1-(4-methylphenyl)-1,3,4,9-tetrahydro-2H-pyrido[3,4-b]indol-2-yl]pyrimidine-4-carbonitrile]"
15,8.49,"Cc1ccc(C2c3[nH]c4ccc(F)cc4c3CCN2c2nc(C(F)(F)F)nc(C(F)(F)F)n2)c(F)c1F (stereo not shown) [Compound 492, 2-[4,6-bis(trifluoromethyl)-1,3,5-triazin-2-yl]-1-(2,3-difluoro-4-methylphenyl)-6-fluoro-2,3,4,9-tetrahydro-1H-pyrido[3,4-b]indole]"
16,8.19,"Cc1cc(Cl)nc(N2CCc3c([nH]c4cc(F)c(Cl)cc34)C2c2ccc(F)cc2)n1 (stereo not shown) [Compound 46, 6-chloro-2-(4-chloro-6-methylpyrimidin-2-yl)-7-fluoro-1-(4-fluorophenyl)-2,3,4,9-tetrahydro-1H-pyrido[3,4-b]indole]"
17,7.78,"COC(=O)CCc1ccc(C2c3[nH]c4cc(F)c(Cl)cc4c3CCN2c2ncc(F)cn2)cc1 (stereo not shown) [Compound 165, methyl 3-{4-[6-chloro-7-fluoro-2-(5-fluoropyrimidin-2-yl)-2,3,4,9-tetrahydro-1H-pyrido[3,4-b]indol-1-yl]phenyl}propanoate]"
18,8.85,"CCCCOC(=O)c1ccnc(N2CCc3c([nH]c4ccc(Cl)cc34)C2c2ccc(C)c(F)c2F)n1 (stereo not shown) [Compound 281, butyl 2-[6-chloro-1-(2,3-difluoro-4-methylphenyl)-1,3,4,9-tetrahydro-2H-pyrido[3,4-b]indol-2-yl]pyrimidine-4-carboxylate]"
19,7.05,"Fc1cnc(N2CCc3c([nH]c4cc(F)c(Cl)cc34)C2c2ccc(F)c(F)c2)nc1 (stereo not shown) [Compound 37, 6-chloro-1-(3,4-difluorophenyl)-7-fluoro-2-(5-fluoropyrimidin-2-yl)-2,3,4,9-tetrahydro-1H-pyrido[3,4-b]indole]"
20,7.03,"Cc1nc(C)nc(N2CCc3c([nH]c4c(N)cc(Cl)cc34)C2c2ccc(C)c(F)c2F)n1 (stereo not shown) [Compound 304, 6-chloro-1-(2,3-difluoro-4-methylphenyl)-2-(4,6-dimethyl-1,3,5-triazin-2-yl)-2,3,4,9-tetrahydro-1H-pyrido[3,4-b]indol-8-amine]"
21,9.00,"FC(F)(F)c1ccnc(N2CCc3c([nH]c4ccc(Cl)cc34)[C@@H]2c2ccc(N3CCOCC3)nc2)n1 [Compound 473, (1S)-6-chloro-1-[6-(morpholin-4-yl)pyridin-3-yl]-2-[4-(trifluoromethyl)pyrimidin-2-yl]-2,3,4,9-tetrahydro-1H-pyrido[3,4-b]indole]"
22,8.30,"CN(C)CCNc1ncc([C@H]2c3[nH]c4ccc(Cl)cc4c3CCN2c2nc(C(F)(F)F)nc(C(F)(F)F)n2)cn1 [Compound 531, N^2-(5-{(1S)-2-[4,6-bis(trifluoromethyl)-1,3,5-triazin-2-yl]-6-chloro-2,3,4,9-tetrahydro-1H-pyrido[3,4-b]indol-1-yl}pyrimidin-2-yl)-N^1,N^1-dimethylethane-1,2-diamine]"
